# Experiment: recombinant UMI read abundance after kanamycin selection (control-corrected) (log10(CPM+1)); higher = more efficient recombination; extreme values may be limits of the assay; sequences stand for … in AGTGCAGAGAAAATCGGCCAGTTTTCTCTGCCTGCAGTCCGCATGCCGTGGGACCCCTTGGGTTCTAACCTGTTGCCTAGATTTATGCAGCGGACTGCCTTTCTCCCAAAGTGATAAACCGG…AGGTTGGTTTCACT; site = the 11-nt donor
# Summary of the method: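 For the IS621 bridge recombinase, a pooled Escherichia coli screen tested donor and donor-binding-loop pairs. Cells received the pair library together with a target plasmid encoding a fixed target and T7-inducible recombinase, then went onto IPTG (0.07 mM) plus kanamycin or unselected plates in duplicate. After PCR across the donor–target junction and sequencing, recombinant UMI counts were normalized to CPM, averaged, and scaled by control-derived factors. Each value is given as log10(CPM+1).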
row,Sequence,recombinant UMI read abundance (log10)
1,CTCGTCTCATGGACCGGTTTTCCCGGTAATCCGTATTTGAC (site CTCGTCTCTGT),1.54
2,CTCTACACATGGACCGGTTTTCCCGGTAATCCGTATTTGCA (site CTCTACACTAG),1.37
3,CTCTACACATGGACCGGTTTTCCCGGTAATCCGTATTTGCA (site CTCTACACTCG),0.499
4,CTCTACACATGGACCGGTTTTCCCGGTAATCCGTATTTGCA (site CTCTACACTGG),1.53
5,CTCTACACATGGACCGGTTTTCCCGGTAATCCGTATTTGCA (site CTCTACACTTG),2.37
6,CTCTACACATGGACCGGTTTTCCCGGTAATCCGTATTTGGT (site CTCTACACTAA),0.0359
7,CTCTACACATGGACCGGTTTTCCCGGTAATCCGTATTTGGT (site CTCTACACTAC),0.0415
8,CTCTACACATGGACCGGTTTTCCCGGTAATCCGTATTTGGT (site CTCTACACTAG),0.21
9,CTCTACACATGGACCGGTTTTCCCGGTAATCCGTATTTGGT (site CTCTACACTAT),0.203
10,CTCTAGTCATGGACCGGTTTTCCCGGTAATCCGTATTTGTG (site CTCTAGTCTCA),1.99
11,CTCTTCACATGGACCGGTTTTCCCGGTAATCCGTATTTGCT (site CTCTACACTAG),1.29
12,CTCTTCACATGGACCGGTTTTCCCGGTAATCCGTATTTGCT (site CTCTCCACTAG),1.14
13,CTCTTCACATGGACCGGTTTTCCCGGTAATCCGTATTTGCT (site CTCTGCACTAG),0
14,CTCTTCACATGGACCGGTTTTCCCGGTAATCCGTATTTGCT (site CTCTTCACTAG),2.46
15,CTCTTCTCATGGACCGGTTTTCCCGGTAATCCGTATTTGGG (site CACTTCTCTCC),0
16,CTCTTCTCATGGACCGGTTTTCCCGGTAATCCGTATTTGGG (site CCCTTCTCTCC),0.0128
17,CTCTTCTCATGGACCGGTTTTCCCGGTAATCCGTATTTGGG (site CGCTTCTCTCC),0.014
18,CTCTTCTCATGGACCGGTTTTCCCGGTAATCCGTATTTGGG (site CTCTTCTCTCC),0
19,CTCTTGGCATGGACCGGTTTTCCCGGTAATCCGTATTTGAA (site CTCTTGGCTTT),1.08
20,CTCTTTGCATGGACCGGTTTTCCCGGTAATCCGTATTTGAC (site CTCTTTGCTGT),0.503
21,CTGAACCCATGGACCGGTTTTCCCGGTAATCCGTATTTGTT (site CGGAATCCTAA),0.0138
22,CTGAACCCATGGACCGGTTTTCCCGGTAATCCGTATTTGTT (site CTGAACCCTAA),0.285
23,CTGAACTCATGGACCGGTTTTCCCGGTAATCCGTATTTGCG (site CTGAACTCTCG),2.99
24,CTGAATCCATGGACCGGTTTTCCCGGTAATCCGTATTTGGT (site CGGAATCCTAA),0.0153
25,CTGAATCCATGGACCGGTTTTCCCGGTAATCCGTATTTGGT (site CTGAATCCTAC),0.615

row,Sequence,recombinant UMI read abundance (log10)
1,CTGACATCATGGACCGGTTTTCCCGGTAATCCGTATTTGCT (site CAGACATCTAG),1.06
2,CTGACATCATGGACCGGTTTTCCCGGTAATCCGTATTTGCT (site CCGACATCTAG),1.39
3,CTGACATCATGGACCGGTTTTCCCGGTAATCCGTATTTGCT (site CGGACATCTAG),0.00554
4,CTGACATCATGGACCGGTTTTCCCGGTAATCCGTATTTGCT (site CTGACATCTAG),2.47
5,CTGACGACATGGACCGGTTTTCCCGGTAATCCGTATTTGTT (site CTGACGACTAA),0.0946
6,CTGACTCCATGGACCGGTTTTCCCGGTAATCCGTATTTGTT (site CGGAATCCTAA),0.00356
7,CTGACTCCATGGACCGGTTTTCCCGGTAATCCGTATTTGTT (site CTGACTCCTAA),0.838
8,CTGATCCCATGGACCGGTTTTCCCGGTAATCCGTATTTGTG (site CTGATCCCTCA),0.794
9,CTGCAAGCATGGACCGGTTTTCCCGGTAATCCGTATTTGTA (site CTGCAAGCTTA),1.8
10,CTGCCATCATGGACCGGTTTTCCCGGTAATCCGTATTTGGT (site CTGCCATCTAC),0
11,CTGCCCTCATGGACCGGTTTTCCCGGTAATCCGTATTTGTT (site CTGCCCTCTAA),2.18
12,CTGCGTACATGGACCGGTTTTCCCGGTAATCCGTATTTGAT (site CTGCGTACTAT),1.81
13,CTGCGTTCATGGACCGGTTTTCCCGGTAATCCGTATTTGAG (site CTGCGTTCTCT),2.26
14,CTGCTAACATGGACCGGTTTTCCCGGTAATCCGTATTTGCT (site CTGCTAACTAG),2.26
15,CTGCTAACATGGACCGGTTTTCCCGGTAATCCGTATTTGCT (site CTGCTACCTAG),0
16,CTGCTAACATGGACCGGTTTTCCCGGTAATCCGTATTTGCT (site CTGCTAGCTAG),0.313
17,CTGCTAACATGGACCGGTTTTCCCGGTAATCCGTATTTGCT (site CTGCTATCTAG),0.474
18,CTGCTACCATGGACCGGTTTTCCCGGTAATCCGTATTTGCA (site CTGCTACCTAG),0.00394
19,CTGCTACCATGGACCGGTTTTCCCGGTAATCCGTATTTGCA (site CTGCTACCTCG),0.00238
20,CTGCTACCATGGACCGGTTTTCCCGGTAATCCGTATTTGCA (site CTGCTACCTGG),0
21,CTGCTACCATGGACCGGTTTTCCCGGTAATCCGTATTTGCA (site CTGCTACCTTG),0
22,CTGCTACCATGGACCGGTTTTCCCGGTAATCCGTATTTGGG (site CTGCTACCTCC),0.0335
23,CTGCTACCATGGACCGGTTTTCCCGGTAATCCGTATTTGGT (site CTGCTACCTAA),0.00859
24,CTGCTACCATGGACCGGTTTTCCCGGTAATCCGTATTTGGT (site CTGCTACCTAC),0.00854
25,CTGCTACCATGGACCGGTTTTCCCGGTAATCCGTATTTGGT (site CTGCTACCTAG),0

row,Sequence,recombinant UMI read abundance (log10)
1,CTGCTACCATGGACCGGTTTTCCCGGTAATCCGTATTTGGT (site CTGCTACCTAT),0.00703
2,CTGCTGACATGGACCGGTTTTCCCGGTAATCCGTATTTGAT (site CTGCTGACTAT),2.13
3,CTGCTTCCATGGACCGGTTTTCCCGGTAATCCGTATTTGGT (site CTGCTTCCTAC),0.0707
4,CTGGAAACATGGACCGGTTTTCCCGGTAATCCGTATTTGAA (site CTGGAAACTTA),0.0938
5,CTGGAAACATGGACCGGTTTTCCCGGTAATCCGTATTTGAA (site CTGGAAACTTC),0.988
6,CTGGAAACATGGACCGGTTTTCCCGGTAATCCGTATTTGAA (site CTGGAAACTTG),0
7,CTGGAAACATGGACCGGTTTTCCCGGTAATCCGTATTTGAA (site CTGGAAACTTT),2.09
8,CTGGAAACATGGACCGGTTTTCCCGGTAATCCGTATTTGCA (site ATGGAAACTTG),0
9,CTGGAAACATGGACCGGTTTTCCCGGTAATCCGTATTTGCA (site CAGGAAACTTG),1.85
10,CTGGAAACATGGACCGGTTTTCCCGGTAATCCGTATTTGCA (site CCGGAAACTTG),1.93
11,CTGGAAACATGGACCGGTTTTCCCGGTAATCCGTATTTGCA (site CGGGAAACTTG),0
12,CTGGAAACATGGACCGGTTTTCCCGGTAATCCGTATTTGCA (site CTAGAAACTTG),2.19
13,CTGGAAACATGGACCGGTTTTCCCGGTAATCCGTATTTGCA (site CTCGAAACTTG),0
14,CTGGAAACATGGACCGGTTTTCCCGGTAATCCGTATTTGCA (site CTGAAAACTTG),0.744
15,CTGGAAACATGGACCGGTTTTCCCGGTAATCCGTATTTGCA (site CTGCAAACTTG),0
16,CTGGAAACATGGACCGGTTTTCCCGGTAATCCGTATTTGCA (site CTGGAAACTAG),0
17,CTGGAAACATGGACCGGTTTTCCCGGTAATCCGTATTTGCA (site CTGGAAACTCG),0.843
18,CTGGAAACATGGACCGGTTTTCCCGGTAATCCGTATTTGCA (site CTGGAAACTGG),0
19,CTGGAAACATGGACCGGTTTTCCCGGTAATCCGTATTTGCA (site CTGGAAACTTA),1.34
20,CTGGAAACATGGACCGGTTTTCCCGGTAATCCGTATTTGCA (site CTGGAAACTTC),0
21,CTGGAAACATGGACCGGTTTTCCCGGTAATCCGTATTTGCA (site CTGGAAACTTG),2.2
22,CTGGAAACATGGACCGGTTTTCCCGGTAATCCGTATTTGCA (site CTGGAAACTTT),2.16
23,CTGGAAACATGGACCGGTTTTCCCGGTAATCCGTATTTGCA (site CTGGAACCTTG),0.0058
24,CTGGAAACATGGACCGGTTTTCCCGGTAATCCGTATTTGCA (site CTGGAAGCTTG),1.51
25,CTGGAAACATGGACCGGTTTTCCCGGTAATCCGTATTTGCA (site CTGGAATCTTG),1.21
